The target of experiment [1] is T1, Pseudomonas aeruginosa LpxC enzyme (Pseudomonas aeruginosa, UniProt P47205).
T1 construct: made in house; host or cells: E. coli
T1 sequence (P47205 1-303): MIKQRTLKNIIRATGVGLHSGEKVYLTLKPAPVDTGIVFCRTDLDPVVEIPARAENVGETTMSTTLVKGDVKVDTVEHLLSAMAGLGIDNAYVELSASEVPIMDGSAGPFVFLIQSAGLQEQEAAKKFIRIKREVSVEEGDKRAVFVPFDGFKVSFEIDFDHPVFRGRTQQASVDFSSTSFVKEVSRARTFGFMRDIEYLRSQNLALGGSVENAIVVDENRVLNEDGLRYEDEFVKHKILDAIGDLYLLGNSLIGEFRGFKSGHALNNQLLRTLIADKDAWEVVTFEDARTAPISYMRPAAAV
Kind of experiment: IC50 assay, LpxC enzyme from P. aeruginosa (BioTrove RapidFire mass spectrometry). The format is biochemical. The essentials: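 P. aeruginosa LpxC reaction run 1 hour, stopped with 1 N HCl, and substrate-to-product conversion quantified by RapidFire mass spectrometry. IC50 calculated from percent conversion using a no-enzyme control.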

Experiment [2] concerns Acinetobacter baumannii/haemolyticus: Multidrug-resistant clinical isolate (AB-3167). Put plainly: MIC determination (CLSI), AB-3167. The class given is cell-based. The conditions noted are these: Acinetobacter baumannii/haemolyticus multidrug-resistant clinical isolate; overnight incubation; lower of duplicate values; read-out: AB-3167 (MIC). An outline of the steps:
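Broth dilution MIC per CLSI M7-A8, 2-fold concentration steps, overnight incubation, visual read of lowest concentration inhibiting growth versus drug-free control. Tested in duplicate; lower value reported if within 2-fold, otherwise repeated; QC organisms and reference drugs required within range.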

In experiment [3] the test system is Escherichia coli EC-1: VOGEL, mouse virulent. Put plainly: MIC determination (CLSI), EC-1. The format is cell-based. Particulars: Escherichia coli, read-out: EC-1 (MIC). An outline of the steps:
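Broth dilution MIC per CLSI M7-A8, with 2-fold compound dilutions incubated overnight with a standard inoculum. MIC is the lowest concentration visibly inhibiting growth versus drug-free control; tested in duplicate, reporting the lower value when within 2-fold, with QC organisms and reference compounds required in range.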

The subject of experiment [4] is Klebsiella pneumoniae: Ciprofloxacin-resistant isolate, expresses ESBL, clinical isolate (KP-3700). Put plainly: MIC determination (CLSI), KP-3700. The class given is cell-based. Particulars: overnight incubation, lower of duplicate values. The essentials: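 Broth dilution MIC per CLSI M7-A8 against the ciprofloxacin-resistant, ESBL-expressing clinical isolate, 2-fold concentration steps, overnight incubation, visual read of lowest growth-inhibiting concentration. Tested in duplicate; lower value reported when within 2-fold; control organisms and reference compounds required within range.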

For experiment [5], the system named is Pseudomonas aeruginosa UI-18: Wild-type (PA-7). Put plainly: MIC determination (CLSI), PA-7. The class given is cell-based. The conditions noted are these: Pseudomonas aeruginosa UI-18 wild-type; overnight incubation; lower of duplicate values; read-out: PA-7 (MIC). The essentials: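 Broth dilution MIC per CLSI M7-A8, using 2-fold compound dilutions incubated overnight; MIC is the lowest concentration with no visible growth versus the drug-free control. Run in duplicate, lower value reported when within 2-fold. Control organisms and reference compounds were included for QC.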

Two compounds from US8809333B2, “Imidazole, pyrazole, and triazole derivatives useful as antibacterial agents” (Pfizer Inc., priority 2011, dated 2014) can be followed below.

Converted amounts (≈) assume the structure as drawn. Like-named read-outs stand apart in the source and are kept apart here.

In turn, `C[C@@](CCn1cc(-c2ccccc2)cn1)(C(=O)NO)S(C)(=O)=O` [Example 6, (2R)—N-hydroxy-2-methyl-2-(methylsulfonyl)-4-(4-phenyl-1H-pyrazol-1-yl)butanamide] returned an IC50 in experiment [1] of 1610 pM. In addition, the MIC in experiment [2] was greater than 64 µg/mL; in experiment [3], 16 µg/mL (≈ 47.4 µM); in experiment [5], 1 µg/mL (≈ 2.96 µM). For the same compound, in experiment [4], the “KP-3700 (MIC)” value is 64 µg/mL.
In the case of `CC(CCn1cc(-c2ccc(-c3ccno3)cc2)cn1)(C(=O)NO)S(C)(=O)=O` (stereo not shown) [Example 73, N-hydroxy-2-methyl-2-(methylsulfonyl)-4-{4-[4-(1,2-oxazol-5-yl)phenyl]-1H-pyrazol-1-yl}butanamide], the IC50 in experiment [1] (P. aeruginosa LpxC enzyme 0.1 nM, 25° C., 1 hour, pH 8.0, read-out: PA: IC50) was 350 pM. Moreover, the figures for the MIC in experiment [2], in experiment [3] and in experiment [5] were greater than 64 µg/mL, 4 µg/mL (≈ 9.89 µM) and 2 µg/mL (≈ 4.95 µM), respectively. For the same compound, the “KP-3700 (MIC)” value in experiment [4] worked out at 16 µg/mL.
